Patent publication US8791132B2, “Compounds and methods for treatment of hypertension” (Medivation Technologies, Inc., priority 2011, dated 2014)
Where two headings read alike, the source gives them in different places.

Key:
[1] = biological target: T1, human recombinant adrenergic α2A receptor (Homo sapiens, UniProt P08913); test: Radioligand binding, adrenergic α2A ([3H]MK-912); details: for Percentage inhibition of ligand binding, Adrenergic α2A (0.1 μM) / inhibition at 0.03 µM / inhibition at 0.1 µM / Percentage inhibition of ligand binding, Adrenergic α2A: [3H]MK-912; for inhibition at 0.03 µM: read-out: Percentage inhibition of ligand binding, Adrenergic α2A (0.03 μM), compound at 0.03 μM; for Percentage inhibition of ligand binding, Adrenergic α2A (0.1 μM) / Percentage inhibition of ligand binding, Adrenergic α2A: 0.1 µM
T1 construct: expressed in transfected cells; host or cells: insect Sf9 cells
T1 sequence (P08913 1-465): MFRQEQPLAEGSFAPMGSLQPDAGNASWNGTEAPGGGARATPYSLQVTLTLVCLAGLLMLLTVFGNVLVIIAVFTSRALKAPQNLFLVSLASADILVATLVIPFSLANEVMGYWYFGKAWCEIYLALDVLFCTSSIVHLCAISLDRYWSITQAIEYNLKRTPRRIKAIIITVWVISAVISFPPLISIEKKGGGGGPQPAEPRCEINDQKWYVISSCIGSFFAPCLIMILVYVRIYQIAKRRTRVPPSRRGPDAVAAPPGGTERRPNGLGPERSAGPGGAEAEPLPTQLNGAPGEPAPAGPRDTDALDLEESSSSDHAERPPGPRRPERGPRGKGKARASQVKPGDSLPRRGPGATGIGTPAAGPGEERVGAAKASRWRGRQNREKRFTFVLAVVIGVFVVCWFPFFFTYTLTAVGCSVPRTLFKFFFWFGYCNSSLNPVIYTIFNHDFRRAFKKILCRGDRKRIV
Outline: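 Receptor expressed in Sf9 cells, in 50 mM Tris-HCl pH 7.4, 12.5 mM MgCl2, 2 mM EDTA; compounds incubated with 1 nM [3H]MK-912 for 60 min at 25 °C.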

[2] = biological target: T2, rat adrenergic α1B receptor (Rattus norvegicus, UniProt P15823); test: Radioligand binding, adrenergic α1B ([3H]Prazosin); details: [3H]Prazosin; for Percentage inhibition of ligand binding, Adrenergic α1B (0.1 μM) / Percentage inhibition of ligand binding, Adrenergic α1B: 0.1 µM
T2 construct: rat adrenergic α1B receptor obtained from Wistar Rat liver; from tissue; host or cells: Wistar rat liver
T2 sequence (P15823 1-515): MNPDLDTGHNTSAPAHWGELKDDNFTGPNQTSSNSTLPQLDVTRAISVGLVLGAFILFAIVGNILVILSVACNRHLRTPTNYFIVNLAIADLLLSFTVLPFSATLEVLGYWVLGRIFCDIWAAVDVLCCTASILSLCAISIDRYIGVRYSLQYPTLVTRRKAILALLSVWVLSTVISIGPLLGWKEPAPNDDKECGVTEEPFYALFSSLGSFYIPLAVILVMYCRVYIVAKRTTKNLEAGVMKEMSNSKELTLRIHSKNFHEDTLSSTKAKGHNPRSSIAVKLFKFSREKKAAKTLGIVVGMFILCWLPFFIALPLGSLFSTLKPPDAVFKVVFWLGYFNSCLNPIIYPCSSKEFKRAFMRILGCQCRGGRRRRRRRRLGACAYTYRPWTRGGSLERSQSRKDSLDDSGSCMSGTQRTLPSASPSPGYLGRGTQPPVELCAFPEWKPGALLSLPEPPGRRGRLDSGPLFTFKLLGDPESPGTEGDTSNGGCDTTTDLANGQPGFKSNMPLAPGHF
Outline: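 Rat α1B receptor from Wistar rat liver was incubated with 0.25 nM [3H]prazosin for 60 min at 25 °C in 50 mM Tris-HCl, pH 7.4, 0.5 mM EDTA. Non-specific binding was defined with 10 μM phentolamine. Bound radioligand was measured by filtration and counting, reported as percent inhibition of specific binding.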

[3] = biological target: T3, human recombinant adrenergic α2B receptor (Homo sapiens, UniProt P18089); test: Radioligand binding, adrenergic α2B ([3H]Rauwolscine); details: for Percentage inhibition of ligand binding, Adrenergic α2B (0.03 μM) / inhibition at 0.03 µM / inhibition at 0.1 µM / Percentage inhibition of ligand binding, Adrenergic α2B: [3H]Rauwolscine; for Ki: read-out: Ki α2B; for Percentage inhibition of ligand binding, Adrenergic α2B (0.03 μM) / Percentage inhibition of ligand binding, Adrenergic α2B: 0.03 µM
T3 construct: expressed in transfected cells; host or cells: CHO-K1
T3 sequence (P18089 1-450): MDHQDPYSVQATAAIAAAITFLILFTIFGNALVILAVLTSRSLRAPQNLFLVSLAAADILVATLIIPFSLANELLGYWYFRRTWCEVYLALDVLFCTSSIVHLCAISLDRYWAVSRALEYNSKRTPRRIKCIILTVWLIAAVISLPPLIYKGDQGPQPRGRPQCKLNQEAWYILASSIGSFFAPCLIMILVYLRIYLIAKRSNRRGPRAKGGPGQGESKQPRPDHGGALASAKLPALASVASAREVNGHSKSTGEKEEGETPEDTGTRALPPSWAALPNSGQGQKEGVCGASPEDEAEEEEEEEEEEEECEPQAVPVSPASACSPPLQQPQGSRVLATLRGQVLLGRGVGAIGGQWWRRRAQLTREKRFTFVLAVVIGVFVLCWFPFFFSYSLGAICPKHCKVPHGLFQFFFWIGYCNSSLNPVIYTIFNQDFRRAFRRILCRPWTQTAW
Outline: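 Readout: percent inhibition of specific [3H]Rauwolscine binding, measured by filtration and counting. Conditions: CHO-K1 cell-expressed receptor, 2.5 nM radioligand, 60 min, 25° C, Tris-HCl pH 7.4 buffer with MgCl2, EDTA, BSA. Non-specific binding: 10 μM Prazosin.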

[4] = compound at 0.1 μM, repeat datapoints each shown
[5] = compound at 0.03 μM, repeat datapoints each shown
[6] = read-out: Percentage inhibition of ligand binding, Adrenergic α2A (0.1 μM), compound at 0.1 μM, repeat datapoints each shown
[7] = read-out: Percentage inhibition of ligand binding, Adrenergic α1B (0.1 μM), compound at 0.1 μM, repeat datapoints each shown
[8] = read-out: Percentage inhibition of ligand binding, Adrenergic α2B (0.03 μM), compound at 0.03 μM, repeat datapoints each shown
[9] = compound at 0.1 μM, repeat assays, each datapoint shown, read-out: Percentage inhibition of ligand binding, Adrenergic α2A
[10] = compound at 0.1 μM, repeat assays, each datapoint shown
[11] = compound at 0.03 μM, repeat assays, each datapoint shown

Percentage inhibition of ligand binding, Adrenergic α2A (0.1 μM) [1, 4]	Percentage inhibition of ligand binding, Adrenergic α2B (0.03 μM) [3, 5]	inhibition at 0.1 µM [1, 6]	inhibition at 0.1 µM [2, 7]	inhibition at 0.03 µM [3, 8]	Structure (SMILES)	also measured
5%	41%	–	–	–	Cc1cnc2c(c1)c1c(n2CC(C)(O)c2ccc(F)cc2)CCN2CCCC12 (single isomer, unassigned) [II-149c, 2-(4-fluoro-phenyl)-1-(9-methyl-1,2,3,4,5,10c-hexahydro-3a,6,7-triazacyclopenta[c]fluoren-6-yl)-propan-2-ol]	Percentage inhibition of ligand binding, Adrenergic α1B (0.1 μM) [2, 4]: 49%
62%	100%	–	–	–	Cc1cc(C)c2c(c1)c1c(n2CC(O)c2ccncc2)CCN2CCCC12 (single isomer, unassigned) [II-125a, 2-(8,10-dimethyl-2,3,5,6-tetrahydro-1H-indolizino[7,8-b]indol-7(11cH)-yl)-1-(pyridin-4-yl)ethanol]	Percentage inhibition of ligand binding, Adrenergic α1B (0.1 μM) [2, 4]: 92%
6%	15%	–	–	–	CN1CCc2c(c3cc(C(F)(F)F)ccc3n2CC(C)(O)c2cccnc2)C1 (single isomer, unassigned) [174b]	Percentage inhibition of ligand binding, Adrenergic α1B (0.1 μM) [2, 4]: 11%
71%	103%	58%	54.6%	93%	Cc1ccc2c(c1)c1c(n2CC(C)(O)c2ccc(C)nc2)CN(C)CC1 (single isomer, unassigned) [196a]	Ki [1]: 0.0168 µM; inhibition at 0.03 µM ([1]; repeat datapoints each shown): 37%; inhibition at 0.03 µM ([2]; read-out: Percentage inhibition of ligand binding, Adrenergic α1B (0.03 μM), compound at 0.03 μM, repeat datapoints each shown): 30%; Ki [3]: 0.00183 µM
–	–	4%	15%	40%	Cc1ccc2c(c1)c1c(n2CC(CC(C)(C)O)c2ccncc2)CCN(C)C1 (centres unmarked) [II-226, 5-(2,8-dimethyl-1,2,3,4-tetrahydro-pyrido[4,3-b]indol-5-yl)-2-methyl-4-pyridin-4-yl-pentan-2-ol]	–
–	–	–	–	–	CCC(O)(Cn1c2c(c3cc(C)ccc31)CN(C)CC2)c1ccncc1 (centres unmarked) [35a]	inhibition at 0.1 µM [1, 9]: 20%; inhibition at 0.1 µM ([2]; compound at 0.1 μM, repeat assays, each datapoint shown, read-out: Percentage inhibition of ligand binding, Adrenergic α1B): 9%; inhibition at 0.1 µM ([3]; compound at 0.1 μM, repeat assays, each datapoint shown, read-out: Percentage inhibition of ligand binding, Adrenergic α2B): 62%
1%	14%	–	–	–	Cc1ccc2c(c1)c1c(n2CC(C)(O)c2cccnc2)CCN(C)C1C (single isomer, unassigned) [II-152c]	Percentage inhibition of ligand binding, Adrenergic α1B (0.1 μM) [2, 4]: 6%
–	–	–	–	–	CN1CCc2c(c3cc(Cl)ccc3n2CC(O)c2ccncc2)C1 (single isomer, unassigned) [4b]	Percentage inhibition of ligand binding, Adrenergic α2A [1, 10]: 7%; Percentage inhibition of ligand binding, Adrenergic α1B [2, 10]: 58%; Percentage inhibition of ligand binding, Adrenergic α2B [3, 11]: 46%
–	–	–	–	–	CN1CCc2c(c3ccc(C(F)(F)F)cc3n2CC(O)c2cccnc2)C1 (single isomer, unassigned) [40a]	inhibition at 0.1 µM [1, 9]: 7%; Percentage inhibition of ligand binding, Adrenergic α1B [2, 10]: 2%; inhibition at 0.03 µM ([3]; compound at 0.03 μM, repeat assays, each datapoint shown, read-out: Percentage inhibition of ligand binding, Adrenergic α2B): 27%
46%	93%	–	–	–	Cc1ccc2c(c1)c1c(n2CC(O)c2ccc(F)cc2F)CCN(C)CC1 (single isomer, unassigned) [172b]	Percentage inhibition of ligand binding, Adrenergic α1B (0.1 μM) [2, 4]: 92%
–	–	70%	71%	103%	Cc1ccc2c(c1)c1c(n2CC(N=[N+]=[N-])c2cnccn2)CCN2CCCC12 (centres unmarked) [II-261, 6-(2-azido-2-pyrazin-2-yl-ethyl)-9-methyl-2,3,4,5,6,10c-hexahydro-1H-3a,6-diaza-cyclopenta[c]fluorene]	–
–	–	56%	77%	82%	Cc1ccc(C(O)Cn2c3c(c4cc(C)ccc42)CN(C)CC3)cc1 (centres unmarked) [183a, 2-(1,2,3,4-tetrahydro-2,8-dimethylpyrido[4,3-b]indol-5-yl)-1-p-tolylethanol]	–
–	–	10%	2%	10%	Cc1ccc2c(c1)c1c(n2CC(C(N)=O)c2ccncc2)CCN(C)C1 (centres unmarked) [II-263]	–
–	–	85%	90%	103%	Cc1ccc2c(c1)c1c(n2CC(O)c2cccnc2)CCN2CCCC12 (centres unmarked) [II-131, 2-(9-Methyl-1,2,3,4,5,10c-hexahydro-3a,6-diaza-cyclopenta[c]fluoren-6-yl)-1-pyridin-3-yl-ethanol]	–
64%	–	58%	18%	48%	CN1CCc2c(c3c(Cl)cccc3n2CCc2ccccc2)C1 [compound 214]	Ki [1]: 0.0227 µM; inhibition at 0.03 µM ([1]; repeat datapoints each shown): 37%; Ki [3]: 0.0129 µM; inhibition at 0.1 µM ([3]; read-out: Percentage inhibition of ligand binding, Adrenergic α2B (0.1 μM), compound at 0.1 μM, repeat datapoints each shown): 80%
–	–	–	–	–	Cc1ccc2c(c1)c1c(n2CC(O)c2ccncc2)CC2CCCCN2C1 (racemic) [75b]	Percentage inhibition of ligand binding, Adrenergic α2A [1, 10]: 5%; Percentage inhibition of ligand binding, Adrenergic α1B [2, 10]: 16%; Percentage inhibition of ligand binding, Adrenergic α2B [3, 11]: 43%
13%	57%	–	78%	–	Cc1ccc2c(c1)c1c(n2CC(OC(=O)CCC(=O)O)c2ccncc2)CCN2CCCC12 (single isomer, unassigned) [V-18a, 4-(2-(10-methyl-2,3,5,6-tetrahydro-1H-indolizino[7,8-b]indol-7(11cH)-yl)-1-(pyridin-4-yl)ethoxy)-4-oxobutanoic acid]	–
–	–	6%	3%	12%	Cc1ccc2c(c1)c1c(n2CC(CC(N)=O)c2ccncc2)CCN(C)C1 (centres unmarked) [II-229, 4-(2,8-dimethyl-1,2,3,4-tetrahydro-pyrido[4,3-b]indol-5-yl)-3-pyridin-4-yl-butyramide]	–
